# According to EP0073143B1, “Novel complex amido and imido derivatives of carboxyalkyl peptides and thioethers and ethers of peptides” (priority 1981, dated 1983):
# How the values were obtained:
# [1] = target: T1, human plasma angiotensin converting enzyme (Homo sapiens, UniProt P12821); test: In vitro assay of inhibition of angiotensin converting enzyme; type: biochemical; conditions: [3H]benzoyl-Gly-His-Leu 80 nM, 37°C, 15 minutes; order of magnitude only; read-out: I50
# T1 construct: partially-purified human plasma angiotensin converting enzyme; from tissue; host or cells: human plasma
# Method: To this was added 100 microliters of buffered substrate [S], [^3H]benzoyl-[…], 80 nM (25 Ci/mmole). The reaction was started by adding 100 microliters of partially-purified human plasma angiotensin converting enzyme, or 100 microliters of buffer alone. The concentration of enzyme [E] used was that required to hydrolyze 8-12% of substrate when incubated at 37°C for 15 minutes. The scintillation vials and their contents were incubated at 37°C for 15 minutes, and the reactions were stopped by adding 200 microliters of 0.5M HCI to each vial. The radioactive reaction product, [^3H]benzoyl-Gly(hippuric acid), was separated from unhydrolyzed substrate by adding and mixing (by inversion) 3 ml of Ventrex Cocktail No. 1 (Ventrex Laboratories, Inc., Portland, Maine), a fluid disclosed in copending U.S. patent application No. 184,653, filed September 6, 1980. Extractable ^3H was quantified by liquid scintillation counting. Substrate, in c.p.m., was quantified by scintillation counting of a vial containing 100 μl of buffered substrate in 5 ml of RIAfluor (New England Nuclear). The reaction mixture containing all constituents except for inhibitor was termed the control (C). The reaction mixture lacking enzyme and inhibitor was called the blank (B). Reaction mixtures containing inhibitor (varied over the range of 10^-4-10^-12M) were called the test (T) reactions. Under the conditions of this assay, the reaction obeys first order enzyme kinetics, thus the concentration of inhibitor required to inhibit the rate of hydrolysis by half (150) approximate the Ki value. The results were estimated by use of the formula: [formula] where C = control c.p.m.; B = blank c.p.m.; [S] = substrate c.p.m. The factor 100 converts fractional substrate utilization into percentage utilization, and 1/15 minute connects to percentage substrate utilization/minute. Thus, [E] is enzyme activity in percentage substrate utilization/minute. By substituting T for C, hydrolysis rates are computed for the test reaction mixtures. By comparing a given test rate against the control rate, the degree of inhibition can be computed.
# [2] = system: effects of 400 ng/kg of angiotensin I on mean arterial blood pressure; test: Intravenous effectiveness: effect on the pressor response to angiotensin I in anesthetized rats; type: in vivo; conditions: de-iodo analog compared with the iodo compound
# Method: Rats (190-290 g body weight) were fasted overnight and then anesthetized with intraperitoneal pentobarbital, 50-60 mg/kg. Tracheostomy was performed and the animals were ventilated mechanically. A cannula was inserted into a femoral vein for injection of angiotensin I, and a second cannula was inserted into a common carotid artery for direct measurement of arterial blood pressure. Heparin, 1,000 units, was injected via the femoral vein to prevent coagulation. Blood pressure was measured with a pressure transducer connected to a polygraph. The rats were injected with […] of angiotensin I in 20 µl of 0.9 g% NaCI, an amount of angiotensin I sufficient to raise mean arterial blood pressure by approximately 48 mm Hg.
# After the responsiveness of a given rat to angiotensin I was established, the named compound at 0.5 micromole/kg (drug dissolved in 15 microliters of 0.9% NaCl) was given intravenously. At timed intervals, the effects of 400 ng/kg of angiotensin I on mean arterial blood pressure were tested. Results are shown below:
# Experiments were carried out using rats according to Example 32.
# [3] = Loss of activity of an aqueous solution on standing; type: physicochemical; conditions: fresh aqueous solution 1 mg per ml, pH of about 8, standing for as little as 30 minutes
# [4] = system: man; conditions: 13 patients treated, all biopsies; Hoorntje et al.; cited from earlier work
# T1 sequence (P12821 30-1232 limits assumed): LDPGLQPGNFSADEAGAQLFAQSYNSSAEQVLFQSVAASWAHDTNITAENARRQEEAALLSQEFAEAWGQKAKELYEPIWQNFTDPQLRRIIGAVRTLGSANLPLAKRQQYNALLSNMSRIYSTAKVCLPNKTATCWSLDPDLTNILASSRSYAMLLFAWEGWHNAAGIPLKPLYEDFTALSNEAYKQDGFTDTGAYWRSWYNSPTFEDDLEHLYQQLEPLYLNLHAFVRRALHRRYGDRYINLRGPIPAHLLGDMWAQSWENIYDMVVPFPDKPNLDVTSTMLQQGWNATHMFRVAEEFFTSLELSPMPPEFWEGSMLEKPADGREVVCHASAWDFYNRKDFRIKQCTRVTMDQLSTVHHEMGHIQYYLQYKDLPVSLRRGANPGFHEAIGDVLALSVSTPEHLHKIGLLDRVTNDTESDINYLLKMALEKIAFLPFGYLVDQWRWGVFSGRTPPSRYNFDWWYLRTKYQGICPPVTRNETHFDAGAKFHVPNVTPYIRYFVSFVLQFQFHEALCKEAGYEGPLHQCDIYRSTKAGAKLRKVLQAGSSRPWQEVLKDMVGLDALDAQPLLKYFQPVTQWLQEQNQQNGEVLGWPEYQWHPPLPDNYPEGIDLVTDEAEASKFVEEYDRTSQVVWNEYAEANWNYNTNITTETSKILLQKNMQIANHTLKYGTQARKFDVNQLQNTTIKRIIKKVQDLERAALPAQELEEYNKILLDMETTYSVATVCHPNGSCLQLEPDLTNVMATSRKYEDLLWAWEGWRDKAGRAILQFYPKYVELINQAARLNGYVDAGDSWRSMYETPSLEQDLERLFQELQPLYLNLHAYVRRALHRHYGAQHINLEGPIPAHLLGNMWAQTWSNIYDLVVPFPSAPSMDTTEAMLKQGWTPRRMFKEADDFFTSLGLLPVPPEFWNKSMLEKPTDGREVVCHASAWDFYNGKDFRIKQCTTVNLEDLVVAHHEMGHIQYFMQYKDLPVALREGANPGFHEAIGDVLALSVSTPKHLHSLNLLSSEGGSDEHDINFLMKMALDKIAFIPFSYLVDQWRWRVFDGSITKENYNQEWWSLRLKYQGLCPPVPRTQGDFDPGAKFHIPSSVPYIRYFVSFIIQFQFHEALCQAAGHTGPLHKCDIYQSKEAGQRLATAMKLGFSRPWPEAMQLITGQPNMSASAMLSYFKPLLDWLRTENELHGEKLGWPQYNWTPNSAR
IC50 [1] [nM],Structure (SMILES),increase of intravenous effectiveness on removal of iodine [2],activity of aqueous solution upon standing [3],renal biopsies [4]
~100,CC(N[C@@H](CC(=O)N1CCCC1)C(=O)O)C(=O)N1CCC[C@H]1C(=O)O (stereo partly drawn) [N-[L-1-carboxy-2-(carbopyrrolide)ethyl]-Alanyl-L-Proline],–,–,–
~1,CC(N[C@@H](CCC(=O)Nc1ccc(I)cc1)C(=O)O)C(=O)N1CCC[C@H]1C(=O)O (stereo partly drawn) [N-[L-1-carboxy-3-(carbo-4-iodo-anilide)propyl] Alanyl-L-Proline],three-fold,–,–
~1,CC(N[C@@H](CCC(=O)Nc1ccccc1)C(=O)O)C(=O)N1CCC[C@H]1C(=O)O (stereo partly drawn) [N-[L-1-carboxy-3-(carbo-anilide)propyl]-Alanyl-L-Proline],–,–,–
–,"C[C@H](CS)C(=O)N1CCC[C@H]1C(=O)O [SQ14225, D-3-mercapto-2-methylpropanoyl-L-proline]",–,substantially less active,evidence of immune complex deposition along the glomerular basement membranes
